In the supplement of paper PMC10307832:

Tests used:
Assay in all cases: relative viability (nuclei count vs DMSO), 5 days (fraction); higher = more cells survive
NCI-H1734 = tested on: NCI-H1734
How it was run: (§1)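 One day after seeding in 1536-well plates, lung cancer cell lines were dosed by pin tool. Dosing was either single-drug or a fixed anchor-drug dose plus five library-drug doses (not always all listed) in √10 steps. After 5 days, nuclei were stained in one fix-and-stain step and counted on 4× images, and relative viability is the nuclei count of treated wells over that of vehicle wells, given as the median of duplicate plates.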

NCI-H1793 = tested on: NCI-H1793
How it was run: as §1

NCI-H1944 = tested on: NCI-H1944
How it was run: as §1

NCI-H1993 = tested on: NCI-H1993
How it was run: as §1

NCI-H2009 = tested on: NCI-H2009
How it was run: as §1

NCI-H2023 = tested on: NCI-H2023
How it was run: as §1

NCI-H2228 = tested on: NCI-H2228
How it was run: as §1

NCI-H23 = tested on: NCI-H23
How it was run: as §1

NCI-H2405 = tested on: NCI-H2405
How it was run: as §1

NCI-H838 = tested on: NCI-H838
How it was run: as §1

SK-LU-1 = tested on: SK-LU-1
How it was run: as §1

UMC-11 = tested on: UMC-11
How it was run: as §1

Clc1ccc(Nc2nnc(Cc3ccncc3)c3ccccc23)cc1 [Vatalanib] + N=C(N)NC(=N)NCCc1ccccc1 [Phenformin] (partner 250 µM)
relative viability (NCI-H1734; first compound 0.04 µM): 0.459
relative viability (NCI-H1734; first compound 0.1265 µM): 0.328
relative viability (NCI-H1734; first compound 0.4 µM): 0.463
relative viability (NCI-H1734; first compound 1.265 µM): 0.322
relative viability (NCI-H1734; first compound 4 µM): 0.346
relative viability (NCI-H1793; first compound 0.04 µM): 0.354
relative viability (NCI-H1793; first compound 0.1265 µM): 0.341
relative viability (NCI-H1793; first compound 0.4 µM): 0.435
relative viability (NCI-H1793; first compound 1.265 µM): 0.295
relative viability (NCI-H1793; first compound 4 µM): 0.296
relative viability (NCI-H1944; first compound 0.04 µM): 0.221
relative viability (NCI-H1944; first compound 0.1265 µM): 0.198
relative viability (NCI-H1944; first compound 0.4 µM): 0.212
relative viability (NCI-H1944; first compound 1.265 µM): 0.188
relative viability (NCI-H1944; first compound 4 µM): 0.19
relative viability (NCI-H1993; first compound 0.04 µM): 0.492
relative viability (NCI-H1993; first compound 0.1265 µM): 0.533
relative viability (NCI-H1993; first compound 0.4 µM): 0.601
relative viability (NCI-H1993; first compound 1.265 µM): 0.482
relative viability (NCI-H1993; first compound 4 µM): 0.534
relative viability (NCI-H2009; first compound 0.04 µM): 0.578
relative viability (NCI-H2009; first compound 0.1265 µM): 0.439
relative viability (NCI-H2009; first compound 0.4 µM): 0.464
relative viability (NCI-H2009; first compound 1.265 µM): 0.406
relative viability (NCI-H2009; first compound 4 µM): 0.391
relative viability (NCI-H2023; first compound 0.04 µM): 0.447
relative viability (NCI-H2023; first compound 0.1265 µM): 0.397
relative viability (NCI-H2023; first compound 0.4 µM): 0.477
relative viability (NCI-H2023; first compound 1.265 µM): 0.376
relative viability (NCI-H2023; first compound 4 µM): 0.341
relative viability (NCI-H2228; first compound 0.04 µM): 0.364
relative viability (NCI-H2228; first compound 0.1265 µM): 0.317
relative viability (NCI-H2228; first compound 0.4 µM): 0.335
relative viability (NCI-H2228; first compound 1.265 µM): 0.366
relative viability (NCI-H2228; first compound 4 µM): 0.322
relative viability (NCI-H23; first compound 0.04 µM): 0.742
relative viability (NCI-H23; first compound 0.1265 µM): 0.719
relative viability (NCI-H23; first compound 0.4 µM): 0.78
relative viability (NCI-H23; first compound 1.265 µM): 0.714
relative viability (NCI-H23; first compound 4 µM): 0.748
relative viability (NCI-H2405; first compound 0.04 µM): 0.425
relative viability (NCI-H2405; first compound 0.1265 µM): 0.376
relative viability (NCI-H2405; first compound 1.265 µM): 0.391
relative viability (NCI-H2405; first compound 4 µM): 0.368
relative viability (NCI-H838; first compound 0.04 µM): 0.607
relative viability (NCI-H838; first compound 0.1265 µM): 0.476
relative viability (NCI-H838; first compound 0.4 µM): 0.69
relative viability (NCI-H838; first compound 1.265 µM): 0.563
relative viability (NCI-H838; first compound 4 µM): 0.548
relative viability (SK-LU-1; first compound 0.04 µM): 0.631
relative viability (SK-LU-1; first compound 0.1265 µM): 0.462
relative viability (SK-LU-1; first compound 0.4 µM): 0.663
relative viability (SK-LU-1; first compound 1.265 µM): 0.494
relative viability (SK-LU-1; first compound 4 µM): 0.52
relative viability (UMC-11; first compound 0.04 µM): 0.311
relative viability (UMC-11; first compound 0.1265 µM): 0.328
relative viability (UMC-11; first compound 0.4 µM): 0.319
relative viability (UMC-11; first compound 1.265 µM): 0.298
relative viability (UMC-11; first compound 4 µM): 0.333
